Experimental data reported in the NIST ThermoML archive (doi:10.1021/je050509f).

Experiment: mn = molality of the nth substance listed, in mol/kg
Conditions: Liquid, Vibrating tube method

[Cl-].[Cl-].[Zn+2] [zinc chloride] + CO
Conditions	mass density [kg/m3]
298.27 K, 170 kPa, m1 = 0.8018	861.37
298.27 K, 188 kPa, m1 = 0.4768	833.84
298.27 K, 200 kPa, m1 = 5.367	1205.67
298.27 K, 203 kPa, m1 = 1.039	881.26
298.27 K, 205 kPa, m1 = 0.1348	801.32
298.27 K, 205 kPa, m1 = 1.977	959.59
298.27 K, 4983 kPa, m1 = 5.367	1209.53
298.27 K, 4985 kPa, m1 = 1.039	885.56
298.27 K, 4994 kPa, m1 = 0.4768	838
298.27 K, 4996 kPa, m1 = 0.8018	865.98
298.27 K, 5004 kPa, m1 = 0.1348	805.97
298.27 K, 5014 kPa, m1 = 1.977	963.97
298.27 K, 9992 kPa, m1 = 5.367	1213.48
298.27 K, 9995 kPa, m1 = 0.8018	870.53
298.27 K, 9996 kPa, m1 = 1.977	968.35
298.27 K, 9997 kPa, m1 = 1.039	889.93
298.27 K, 10000 kPa, m1 = 0.1348	810.57
298.27 K, 10004 kPa, m1 = 0.4768	841.99
298.27 K, 14982 kPa, m1 = 0.4768	845.9
298.27 K, 14987 kPa, m1 = 1.039	894.12
298.27 K, 14995 kPa, m1 = 5.367	1217.3
298.27 K, 14997 kPa, m1 = 1.977	972.58
298.27 K, 15000 kPa, m1 = 0.8018	874.88
298.27 K, 15010 kPa, m1 = 0.1348	814.96
298.27 K, 19985 kPa, m1 = 1.039	898.15
298.27 K, 19988 kPa, m1 = 5.367	1221.03
298.27 K, 19989 kPa, m1 = 1.977	976.63
298.27 K, 20001 kPa, m1 = 0.8018	879.03
298.27 K, 20007 kPa, m1 = 0.1348	819.13
298.27 K, 20018 kPa, m1 = 0.4768	849.66
298.27 K, 24988 kPa, m1 = 0.8018	883.01
298.27 K, 24993 kPa, m1 = 1.977	980.56
298.27 K, 24996 kPa, m1 = 5.367	1224.68
298.27 K, 24999 kPa, m1 = 0.1348	823.11
298.27 K, 25003 kPa, m1 = 1.039	902.02
298.27 K, 25032 kPa, m1 = 0.4768	853.57
298.27 K, 29990 kPa, m1 = 1.977	984.35
298.27 K, 29994 kPa, m1 = 5.367	1228.21
298.27 K, 30002 kPa, m1 = 0.1348	826.95
298.27 K, 30004 kPa, m1 = 0.4768	857.56
298.27 K, 30004 kPa, m1 = 0.8018	886.87
298.27 K, 30007 kPa, m1 = 1.039	905.8
298.27 K, 34983 kPa, m1 = 1.039	909.4
298.27 K, 34992 kPa, m1 = 0.8018	890.56
298.27 K, 34993 kPa, m1 = 0.1348	830.61
298.27 K, 34993 kPa, m1 = 0.4768	862.15
298.27 K, 34996 kPa, m1 = 5.367	1231.68
298.27 K, 35014 kPa, m1 = 1.977	988.04
298.27 K, 39991 kPa, m1 = 1.039	912.9
298.27 K, 39994 kPa, m1 = 1.977	991.58
298.27 K, 39994 kPa, m1 = 5.367	1235.1
298.27 K, 39997 kPa, m1 = 0.4768	866.01
298.27 K, 39997 kPa, m1 = 0.8018	894.15
298.27 K, 40006 kPa, m1 = 0.1348	834.16
323.24 K, 207 kPa, m1 = 0.4768	808.23
323.24 K, 209 kPa, m1 = 0.1348	777.17
323.24 K, 209 kPa, m1 = 5.367	1172.87
323.24 K, 220 kPa, m1 = 1.039	855.22
323.24 K, 230 kPa, m1 = 1.977	931.65
323.24 K, 233 kPa, m1 = 0.8018	835.94
323.24 K, 4983 kPa, m1 = 0.8018	841.09
323.24 K, 4985 kPa, m1 = 0.4768	813.47
323.24 K, 4990 kPa, m1 = 0.1348	782.51
323.24 K, 4993 kPa, m1 = 1.977	936.57
323.24 K, 4994 kPa, m1 = 1.039	860.28
323.24 K, 4999 kPa, m1 = 5.367	1177.21
323.24 K, 9985 kPa, m1 = 1.977	941.48
323.24 K, 9994 kPa, m1 = 0.4768	818.67
323.24 K, 9997 kPa, m1 = 5.367	1181.61
323.24 K, 10002 kPa, m1 = 0.8018	846.25
323.24 K, 10003 kPa, m1 = 0.1348	787.77
323.24 K, 10005 kPa, m1 = 1.039	865.32
323.24 K, 14982 kPa, m1 = 0.4768	823.55
323.24 K, 14998 kPa, m1 = 1.977	946.2
323.24 K, 14999 kPa, m1 = 0.1348	792.71
323.24 K, 14999 kPa, m1 = 1.039	870.09
323.24 K, 15002 kPa, m1 = 0.8018	851.11
323.24 K, 15002 kPa, m1 = 5.367	1185.89
323.24 K, 19995 kPa, m1 = 0.4768	828.21
323.24 K, 19998 kPa, m1 = 5.367	1190.03
323.24 K, 19999 kPa, m1 = 0.8018	855.74
323.24 K, 19999 kPa, m1 = 1.977	950.72
323.24 K, 20000 kPa, m1 = 0.1348	797.39
323.24 K, 20003 kPa, m1 = 1.039	874.64
323.24 K, 24989 kPa, m1 = 0.8018	860.16
323.24 K, 24989 kPa, m1 = 1.977	955.05
323.24 K, 24989 kPa, m1 = 5.367	1194.06
323.24 K, 24990 kPa, m1 = 1.039	878.98
323.24 K, 24994 kPa, m1 = 0.1348	801.85
323.24 K, 24999 kPa, m1 = 0.4768	832.65
323.24 K, 29987 kPa, m1 = 0.4768	836.86
323.24 K, 29989 kPa, m1 = 0.8018	864.4
323.24 K, 29990 kPa, m1 = 1.977	959.23
323.24 K, 29993 kPa, m1 = 0.1348	806.09
323.24 K, 30001 kPa, m1 = 5.367	1197.99
323.24 K, 30007 kPa, m1 = 1.039	883.18
323.24 K, 34987 kPa, m1 = 5.367	1201.8
323.24 K, 34989 kPa, m1 = 1.039	887.17
323.24 K, 34998 kPa, m1 = 0.8018	868.48
323.24 K, 35001 kPa, m1 = 1.977	963.27
323.24 K, 35003 kPa, m1 = 0.4768	840.94
323.24 K, 35007 kPa, m1 = 0.1348	810.14
323.24 K, 39991 kPa, m1 = 1.039	891.04
323.24 K, 39994 kPa, m1 = 0.4768	844.83
323.24 K, 39995 kPa, m1 = 0.8018	872.4
323.24 K, 39995 kPa, m1 = 5.367	1205.55
323.24 K, 39997 kPa, m1 = 0.1348	814
323.24 K, 39997 kPa, m1 = 1.977	967.17
348.27 K, 305 kPa, m1 = 1.977	904.26
348.27 K, 308 kPa, m1 = 0.1348	752.15
348.27 K, 320 kPa, m1 = 0.4768	782.8
348.27 K, 328 kPa, m1 = 0.8018	810.17
348.27 K, 330 kPa, m1 = 1.039	829.39
348.27 K, 335 kPa, m1 = 5.367	1141.63
348.27 K, 4982 kPa, m1 = 5.367	1146.29
348.27 K, 4983 kPa, m1 = 0.4768	788.73
348.27 K, 4984 kPa, m1 = 1.977	909.72
348.27 K, 4989 kPa, m1 = 0.1348	758.25
348.27 K, 4994 kPa, m1 = 1.039	835.08
348.27 K, 4999 kPa, m1 = 0.8018	816.01
348.27 K, 9985 kPa, m1 = 1.977	915.25
348.27 K, 9992 kPa, m1 = 0.8018	821.86
348.27 K, 9992 kPa, m1 = 5.367	1151.14
348.27 K, 9993 kPa, m1 = 0.1348	764.3
348.27 K, 9998 kPa, m1 = 0.4768	794.7
348.27 K, 10000 kPa, m1 = 1.039	840.82
348.27 K, 14985 kPa, m1 = 0.4768	800.24
348.27 K, 14985 kPa, m1 = 0.8018	827.35
348.27 K, 14987 kPa, m1 = 1.039	846.22
348.27 K, 14992 kPa, m1 = 1.977	920.51
348.27 K, 14999 kPa, m1 = 0.1348	769.95
348.27 K, 15020 kPa, m1 = 5.367	1155.81
348.27 K, 19986 kPa, m1 = 1.977	925.5
348.27 K, 19989 kPa, m1 = 0.4768	805.48
348.27 K, 19994 kPa, m1 = 0.8018	832.56
